The results in this text go back to patent US12139492B2 (Endotarget Inc., priority 2021, dated 2024).

In one assay the test system is JeKo-1 cells. The assay can be described thus: Antiproliferative effect, MTS cell viability assay, JeKo-1 cells. It counts as cell-based. As to conditions: Homo sapiens; JeKo-1 mantle cell lymphoma cells; read-out: IC50 (anti-proliferation) JeKO-1 cells. Summed up:
(§1)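 MTS read-out, A490 of formazan from metabolically active cells; compound 0–10 μM (0, 0.001, 0.01, 0.1, 1, 10 μM), 72 h exposure.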
Background: Formazan colour is commonly taken as a measure of viable cells.

In a further assay the target is BTK (Homo sapiens, UniProt Q06187). Put plainly: Degradation of BTK protein in Namalwa cells (Western blot; DC50, Dmax). Conditions: for DC50: BTK degradation, cell line not given. Background: A western blot detects proteins with antibodies after separation by electrophoresis.
BTK, sequence (Q06187 whole entry): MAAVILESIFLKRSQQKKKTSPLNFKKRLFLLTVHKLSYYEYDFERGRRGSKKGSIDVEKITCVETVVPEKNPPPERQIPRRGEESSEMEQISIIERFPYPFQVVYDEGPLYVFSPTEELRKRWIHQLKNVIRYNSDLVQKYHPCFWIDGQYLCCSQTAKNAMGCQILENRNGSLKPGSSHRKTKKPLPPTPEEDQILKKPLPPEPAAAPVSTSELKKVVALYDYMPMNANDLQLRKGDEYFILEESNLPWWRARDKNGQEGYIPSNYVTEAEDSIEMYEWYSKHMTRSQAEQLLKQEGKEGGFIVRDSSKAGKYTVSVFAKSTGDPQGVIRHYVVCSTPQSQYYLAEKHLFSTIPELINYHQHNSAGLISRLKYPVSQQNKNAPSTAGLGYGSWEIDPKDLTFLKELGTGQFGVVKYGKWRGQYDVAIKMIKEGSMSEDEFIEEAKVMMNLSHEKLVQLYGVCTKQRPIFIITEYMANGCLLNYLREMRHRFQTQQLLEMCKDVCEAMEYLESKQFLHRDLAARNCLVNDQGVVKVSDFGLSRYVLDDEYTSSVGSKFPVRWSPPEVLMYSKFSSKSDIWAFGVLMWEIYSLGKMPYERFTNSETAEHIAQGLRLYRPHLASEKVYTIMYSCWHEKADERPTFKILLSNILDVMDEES
The subject of a further assay is Mino cells. Put plainly: Antiproliferative effect, MTS cell viability assay, Mino cells. It counts as cell-based. Conditions: Homo sapiens, MINO, Mino mantle cell lymphoma cells; read-out: IC50 (anti-proliferation) Mino cells. Summed up:
as §1

Each structure is given as a SMILES string.

What is called Dmax is the greatest extent of degradation seen. Higher therefore signals deep degradation. Broadly, the DC50 is the midpoint of the concentration-degradation curve. Low values mean degradation at low concentration, high ones degradation only at high concentration.

In the case of `NC(=O)c1c(-c2ccc(Oc3ccccc3)cc2)nn2c1NCC[C@H]2C1CCN(C(=O)N2CCN(CCN3CCC(c4ccc5c(c4)CN(C4CCC(=O)NC4=O)C5=O)CC3)CC2)CC1` (stereo partly drawn) [Compound 304, (7S)-7-(1-(4-(2-(4-(2-(2,6-dioxopiperidin-3-yl)-1-oxoisoindolin-5-yl)piperidin-1-yl)ethyl)piperazine-1-carbonyl)piperidin-4-yl)-2-(4-phenoxyphenyl)-4,5,6,7-tetrahydropyrazolo[1,5-a]pyrimidine-3-carboxamide], in the assay with JeKo-1 cells, the IC50 is 1000 to 10000 nM. At BTK, this compound displayed a Dmax greater than 75% and a DC50 of 10 to 50 nM. For the same compound, the IC50 in the assay with Mino cells was 1000 to 10000 nM.
Turning to `NC(=O)c1c(-c2ccc(Oc3ccccc3)cc2)nn2c1NCCC2C1CCN(C2CCN(CC3CCN(c4ccc5c(c4)C(=O)N(C4CCC(=O)NC4=O)C5=O)CC3)CC2)CC1` (stereo not drawn) [Compound 305, 7-(1′-((1-(2-(2,6-dioxopiperidin-3-yl)-1,3-dioxoisoindolin-5-yl)piperidin-4-yl)methyl)-[1,4′-bipiperidin]-4-yl)-2-(4-phenoxyphenyl)-4,5,6,7-tetrahydropyrazolo[1,5-a]pyrimidine-3-carboxamide], the IC50 with JeKo-1 cells was 1000 to 10000 nM. At BTK, this compound yielded a Dmax greater than 90% and a DC50 of 10 to 50 nM. Also, the IC50 with Mino cells lay in the range of 1000 to 10000 nM.
As to `NC(=O)c1c(-c2ccc(Oc3ccccc3)cc2)nn2c1NCCC2C1CCN(C2CCN(CC3CCN(c4ccc5c(c4)CN(C4CCC(=O)NC4=O)C5=O)CC3)CC2)CC1` (stereo not drawn) [Compound 306, 7-(1′-((1-(2-(2,6-dioxopiperidin-3-yl)-1-oxoisoindolin-5-yl)piperidin-4-yl)methyl)-[1,4′-bipiperidin]-4-yl)-2-(4-phenoxyphenyl)-4,5,6,7-tetrahydropyrazolo[1,5-a]pyrimidine-3-carboxamide], the IC50 with JeKo-1 cells and with Mino cells was 1000 to 10000 nM in each case. For the same compound, on BTK, the maximal degradation (Dmax) was greater than 90%. This compound displayed a DC50 at BTK of 10 to 50 nM.
`NC(=O)c1c(-c2ccc(Oc3ccccc3)cc2)nn2c1NCCC2C1CCN(C2CCN(CCN3CCN(c4ccc5c(c4)C(=O)N(C4CCC(=O)NC4=O)C5=O)CC3)CC2)CC1` (stereo not drawn) [Compound 307, 7-(1′-(2-(4-(2-(2,6-dioxopiperidin-3-yl)-1,3-dioxoisoindolin-5-yl)piperazin-1-yl)ethyl)-[1,4′-bipiperidin]-4-yl)-2-(4-phenoxyphenyl)-4,5,6,7-tetrahydropyrazolo[1,5-a]pyrimidine-3-carboxamide]: the IC50 in the assay on JeKo-1 cells was greater than 10000 nM. Moreover, at BTK, the Dmax was greater than 75% and the DC50 was greater than 50 nM. Further, the IC50 in the assay on Mino cells is 1000 to 10000 nM.
For `NC(=O)c1c(-c2ccc(Oc3ccccc3)cc2)nn2c1NCCC2C1CCN(C2CCN(CCN3CCN(c4ccc5c(c4)CN(C4CCC(=O)NC4=O)C5=O)CC3)CC2)CC1` (stereo not drawn) [Compound 308, 7-(1′-(2-(4-(2-(2,6-dioxopiperidin-3-yl)-1-oxoisoindolin-5-yl)piperazin-1-yl)ethyl)-[1,4′-bipiperidin]-4-yl)-2-(4-phenoxyphenyl)-4,5,6,7-tetrahydropyrazolo[1,5-a]pyrimidine-3-carboxamide], in that order: greater than 10000 nM, greater than 75%, 10 to 50 nM and 1000 to 10000 nM.
`NC(=O)c1c(-c2ccc(Oc3ccccc3)cc2)nn2c1NCCC2C1CCN(C2CCN(CCC3CCN(c4ccc5c(c4)C(=O)N(C4CCC(=O)NC4=O)C5=O)CC3)CC2)CC1` (stereo not drawn) [Compound 309, 7-(1′-(2-(1-(2-(2,6-dioxopiperidin-3-yl)-1,3-dioxoisoindolin-5-yl)piperidin-4-yl)ethyl)-[1,4′-bipiperidin]-4-yl)-2-(4-phenoxyphenyl)-4,5,6,7-tetrahydropyrazolo[1,5-a]pyrimidine-3-carboxamide]: the IC50 in the assay with JeKo-1 cells was greater than 10000 nM. At BTK, this compound displayed a Dmax greater than 75% and a DC50 of 10 to 50 nM. Also, in the assay with Mino cells, the IC50 is greater than 10000 nM.
On to `NC(=O)c1c(-c2ccc(Oc3ccccc3)cc2)nn2c1NCCC2C1CCN(C2CCN(CCC3CCN(c4ccc5c(c4)CN(C4CCC(=O)NC4=O)C5=O)CC3)CC2)CC1` (stereo not drawn) [Compound 310, 7-(1′-(2-(1-(2-(2,6-dioxopiperidin-3-yl)-1-oxoisoindolin-5-yl)piperidin-4-yl)ethyl)-[1,4′-bipiperidin]-4-yl)-2-(4-phenoxyphenyl)-4,5,6,7-tetrahydropyrazolo[1,5-a]pyrimidine-3-carboxamide], for which, in the assay with JeKo-1 cells, the IC50 is greater than 10000 nM. For the same compound, at BTK, the Dmax was greater than 75% and the DC50 lay in the range of 10 to 50 nM. Also, the IC50 with Mino cells is greater than 10000 nM.
Take `NC(=O)c1c(-c2ccc(Oc3ccccc3)cc2)nn2c1NCCC2C1CCN(C2CCN(CCN3CCC(c4ccc5c(c4)C(=O)N(C4CCC(=O)NC4=O)C5=O)CC3)CC2)CC1` (stereo not drawn) [Compound 311, 7-(1′-(2-(4-(2-(2,6-dioxopiperidin-3-yl)-1,3-dioxoisoindolin-5-yl)piperidin-1-yl)ethyl)-[1,4′-bipiperidin]-4-yl)-2-(4-phenoxyphenyl)-4,5,6,7-tetrahydropyrazolo[1,5-a]pyrimidine-3-carboxamide]: the IC50 in the assay on JeKo-1 cells and in the assay with Mino cells was greater than 10000 nM each time. At BTK, this compound yielded a Dmax greater than 75%. In addition, the DC50 on BTK is greater than 50 nM.
Consider `NC(=O)c1c(-c2ccc(Oc3ccccc3)cc2)nn2c1NCCC2C1CCN(C2CCN(CCN3CCC(c4ccc5c(c4)CN(C4CCC(=O)NC4=O)C5=O)CC3)CC2)CC1` (stereo not drawn) [Compound 312, 7-(1′-(2-(4-(2-(2,6-dioxopiperidin-3-yl)-1-oxoisoindolin-5-yl)piperidin-1-yl)ethyl)-[1,4′-bipiperidin]-4-yl)-2-(4-phenoxyphenyl)-4,5,6,7-tetrahydropyrazolo[1,5-a]pyrimidine-3-carboxamide], for which the IC50 with JeKo-1 cells was greater than 10000 nM. Further, on BTK, the Dmax was greater than 75% and the DC50 is greater than 50 nM. Further, the IC50 in the assay with Mino cells was greater than 10000 nM.
As to `NC(=O)c1c(-c2ccc(Oc3ccccc3)cc2)nn2c1NCCC2C1CCN(CC2CCN(CC3CCN(c4ccc5c(c4)C(=O)N(C4CCC(=O)NC4=O)C5=O)CC3)CC2)CC1` (stereo not drawn) [Compound 313, 7-(1-((1-((1-(2-(2,6-dioxopiperidin-3-yl)-1,3-dioxoisoindolin-5-yl)piperidin-4-yl)methyl)piperidin-4-yl)methyl)piperidin-4-yl)-2-(4-phenoxyphenyl)-4,5,6,7-tetrahydropyrazolo[1,5-a]pyrimidine-3-carboxamide], the IC50 with JeKo-1 cells was in the range of 1000 to 10000 nM. At BTK, this compound gave a Dmax greater than 90% and a DC50 of 10 to 50 nM. Further, in the assay with Mino cells, the IC50 fell in the range of 1000 to 10000 nM.
`NC(=O)c1c(-c2ccc(Oc3ccccc3)cc2)nn2c1NCCC2C1CCN(CC2CCN(CC3CCN(c4ccc5c(c4)CN(C4CCC(=O)NC4=O)C5=O)CC3)CC2)CC1` (stereo not drawn) [Compound 314, 7-(1-((1-((1-(2-(2,6-dioxopiperidin-3-yl)-1-oxoisoindolin-5-yl)piperidin-4-yl)methyl)piperidin-4-yl)methyl)piperidin-4-yl)-2-(4-phenoxyphenyl)-4,5,6,7-tetrahydropyrazolo[1,5-a]pyrimidine-3-carboxamide]: the IC50 with JeKo-1 cells was in the range of 1000 to 10000 nM. At BTK, this compound registered a Dmax greater than 90% and a DC50 of 10 to 50 nM. In addition, in the assay on Mino cells, the IC50 lay in the range of 1000 to 10000 nM.
As to `NC(=O)c1c(-c2ccc(Oc3ccccc3)cc2)nn2c1NCCC2C1CCN(CC2CCN(CCN3CCN(c4ccc5c(c4)C(=O)N(C4CCC(=O)NC4=O)C5=O)CC3)CC2)CC1` (stereo not drawn) [Compound 315, 7-(1-((1-(2-(4-(2-(2,6-dioxopiperidin-3-yl)-1,3-dioxoisoindolin-5-yl)piperazin-1-yl)ethyl)piperidin-4-yl)methyl)piperidin-4-yl)-2-(4-phenoxyphenyl)-4,5,6,7-tetrahydropyrazolo[1,5-a]pyrimidine-3-carboxamide], the IC50 with JeKo-1 cells fell in the range of 1000 to 10000 nM. In addition, at BTK, the Dmax is greater than 75% and the DC50 is greater than 50 nM. Besides, the IC50 with Mino cells fell in the range of 1000 to 10000 nM.
Regarding `NC(=O)c1c(-c2ccc(Oc3ccccc3)cc2)nn2c1NCCC2C1CCN(CC2CCN(CCN3CCN(c4ccc5c(c4)CN(C4CCC(=O)NC4=O)C5=O)CC3)CC2)CC1` (stereo not drawn) [Compound 316, 7-(1-((1-(2-(4-(2-(2,6-dioxopiperidin-3-yl)-1-oxoisoindolin-5-yl)piperazin-1-yl)ethyl)piperidin-4-yl)methyl)piperidin-4-yl)-2-(4-phenoxyphenyl)-4,5,6,7-tetrahydropyrazolo[1,5-a]pyrimidine-3-carboxamide], the IC50 in the assay on JeKo-1 cells and in the assay with Mino cells was 1000 to 10000 nM throughout. In addition, the Dmax at BTK is greater than 75%. On BTK, this compound came in with a DC50 of 10 to 50 nM.
Consider `NC(=O)c1c(-c2ccc(Oc3ccccc3)cc2)nn2c1NCCC2C1CCN(CC2CCN(CCC3CCN(c4ccc5c(c4)C(=O)N(C4CCC(=O)NC4=O)C5=O)CC3)CC2)CC1` (stereo not drawn) [Compound 317, 7-(1-((1-(2-(1-(2-(2,6-dioxopiperidin-3-yl)-1,3-dioxoisoindolin-5-yl)piperidin-4-yl)ethyl)piperidin-4-yl)methyl)piperidin-4-yl)-2-(4-phenoxyphenyl)-4,5,6,7-tetrahydropyrazolo[1,5-a]pyrimidine-3-carboxamide], for which the values for the IC50 in the assay with JeKo-1 cells and with Mino cells were greater than 10000 nM and 1000 to 10000 nM, respectively. At BTK, this compound registered a Dmax greater than 75%. The compound further displayed a DC50 on BTK greater than 50 nM.
For `NC(=O)c1c(-c2ccc(Oc3ccccc3)cc2)nn2c1NCCC2C1CCN(CC2CCN(CCC3CCN(c4ccc5c(c4)CN(C4CCC(=O)NC4=O)C5=O)CC3)CC2)CC1` (stereo not drawn) [Compound 318, 7-(1-((1-(2-(1-(2-(2,6-dioxopiperidin-3-yl)-1-oxoisoindolin-5-yl)piperidin-4-yl)ethyl)piperidin-4-yl)methyl)piperidin-4-yl)-2-(4-phenoxyphenyl)-4,5,6,7-tetrahydropyrazolo[1,5-a]pyrimidine-3-carboxamide], in that order: greater than 10000 nM, 1000 to 10000 nM, greater than 75% and greater than 50 nM.
